How the values were obtained:
[1] = test system: HN-13-0007 xenograft; assay: HN-13-0007 xenograft model, Compound 1 and radiation; assay type: in vivo, mice; details: for Classification / Synergy score: through Day 24
Description: The HN-13-0007 xenograft model is a human primary head and neck […] cancer model. Approximately nine week old female BALB/c nude (Shanghai Sino-British SIPPR/BK Laboratory Animal Co., LTD.) mice were implanted subcutaneously with approximate 30 mm^3 HN-13-0007 tumor slices in the right flank. When the mean tumor volume reached approximately 130 mm^3, the animals were randomized into 10 treatment groups (n=8/group).
(§1) Compound 1 [((1R,2R,3S,4R)-2,3-dihydroxy-4-(2-(3-(trifluoromethylthio) ? phenyl)pyrazolo[1,5-a]pyrimidin-7-ylamino)cyclopentyl)methyl sulfamate] is formulated in 10% HPbCD in sterile water and administered intravenously on days 0, 3, 7, 10, 14, 17 in the LU-01-0266 and HN-13-0007 models and on days 0, 3, 8, 11, 15, 18 in the ST-02-0004 model and in the second study with the LU-01-0030 model. Compound 1 formulation was prepared weekly and stored at room temperature in the dark.
(§2) Beam-focused radiation was delivered using 2 Gray dosed on days 0, 1, 7, and 8 or on days 0, 3, 7, and 10 in the LU-01-0266 and HN-13-0007 models. In the ST-02-0004 model 2 Gray of radiation was delivered on days 0, 1, 3, and 8. A Rad Source RS-2000 X-ray irradiator was used for therapy (Rad Source). Before radiation, animals were anesthetized by i.p. injection using 1.0% sodium pentobarbital at 80 mg/kg (Vendor: Sigma). Focused radiation was applied to each mouse at 1 Gy/min.
(§3) Tumors were measured twice weekly using vernier calipers. Tumor volumes were calculated using the following formula: (0.5×[length×width^2]). Treatment groups and dosing/treatment schedules are indicated in Tables 1a, 2a, 3a, 4a, and 5a below. Tumor size and body weight are measured approximately twice a week for the duration of the study. Mice are euthanized when their tumor volume reached approximately 1000 mm^3. Tumor growth continued to be monitored after the dosing period in some studies. In Tables 1a, 2a, 3a, 4a, and 5a tumor volumes are shown for HN-13-0014 (day 21), LU-01-0030 (day 21), the second LU-01-0030 study (day 20), LU-01-0266 (day 20), ST-02-0004 (day 21) and FIN-13-0007 (day 24), respectively. Average tumor volume is reported as a function of time for selected groups of selected studies.
(§4) Measurements from day 0 to day 20, day 21 or day 24 are analyzed as specified in Tables below. All tumor volumes have a value of 1 added to them before log10 transformation. For each animal, the log tumor volume at day 0 is subtracted from the log tumor volume on the subsequent days. This difference vs. time is used to calculate an area under the curve (AUC) for each animal using the trapezoid rule. In instances when an animal in a treatment group is removed early from the study, the last observed tumor value is carried forward through all subsequent time points. The synergy score for the combination of agents A and B is defined as 100*(mean(AUCAB)−mean(AUCA)−mean(AUCB)+mean(AUCctl))/mean(AUCctl): where AUCAB, AUCA, AUCB, and AUCctl are the AUC values for animals in the combination group, the A group, the B group, and the control group, respectively. The standard error of the synergy score is computed based on the variation in the AUC values among the animals. […] If the P-value is above 0.05, then the combination is considered to be additive. If the P-value is below 0.05, and the synergy score is less than zero, then the combination is considered to be synergistic. If the P-value is below 0.05 and the synergy score was greater than zero, but the mean AUC for the combination was lower than the lowest mean AUC among the two single agent treatments, then the combination was sub-additive. If the P-value is below 0.05 and if the synergy score was greater than zero, and the mean AUC for the combination was greater than the mean AUC for at least one of the single agent treatments, then the combination was antagonistic.

[2] = test system: ST-02-0004 xenograft; assay: ST-02-0004 xenograft model, Compound 1 and radiation; assay type: in vivo, mice; details: for Classification / Synergy score: through Day 21
Description: The ST-02-0004 xenograft model is a human primary gastric cancer model. Approximately nine week old female BALB/c nude (Shanghai Sino-British SIPPR/BK Laboratory Animal Co., LTD.) mice were implanted subcutaneously with approximate 30 mm^3 ST-02-0004 tumor slices in the right flank. When the mean tumor volume reached approximately 162 mm^3, the animals were randomized into 6 treatment groups (n=8/group).
as §1, §2, §3, §4

[3] = 6.25 mg/kg Compound 1 + 2 Gy Radiation D0, 1, 7, 8
[4] = 6.25 mg/kg Compound 1 + 2 Gy Radiation D0, 3, 7, 10
[5] = 15 mg/kg Compound 1 + 2 Gy Radiation D0, 1, 7, 8
[6] = 15 mg/kg Compound 1 + 2 Gy Radiation D0, 3, 7, 10
[7] = 6.25 mg/kg compound 1 + 2 Gy Radiation D0, 1, 3, 8
[8] = 15 mg/kg compound 1 + 2 Gy Radiation D0, 1, 3, 8

With `NS(=O)(=O)OC[C@H]1C[C@@H](Nc2ccnc3cc(-c4cccc(SC(F)(F)F)c4)nn23)[C@H](O)[C@@H]1O` [Compound 1, ((1R,2R,3S,4R)-2,3-dihydroxy-4-(2-(3-(trifluoromethylthio)phenyl)pyrazolo[1,5-a]pyrimidin-7-ylamino)cyclopentyl)methyl sulfamate] the “Tumor Volume Day 24” value ([1]; 6.25 mg/kg Compound 1 IV BIWx3 + 2 Gy Radiation Beam D 0, 1, 7, 8) was 318.8 mm^3, the “Tumor Volume Day 24” value ([1]; 6.25 mg/kg Compound 1 IV BIWx3 + 2 Gy Radiation Beam D 0, 3, 7, 10) was 340 mm^3 and the “Tumor Volume Day 24” value ([1]; 6.25 mg/kg Compound 1 IV BIWx3 = D 0, 3, 7, 10, 14, 17, single agent) was 442.4 mm^3. The “Tumor Volume Day 24” value ([1]; 15 mg/kg Compound 1 IV BIWx3 + 2 Gy Radiation Beam D 0, 1, 7, 8) was 358.3 mm^3, the “Tumor Volume Day 24” value ([1]; 15 mg/kg Compound 1 IV BIWx3 + 2 Gy Radiation Beam D 0, 3, 7, 10) was 299.7 mm^3 and the “Tumor Volume Day 24” value ([1]; 15 mg/kg Compound 1 IV BIWx3 = D 0, 3, 7, 10, 14, 17, single agent) was 362.1 mm^3. The “tumor growth inhibition, single agent” value ([1]; Compound 1 at 15 mg/kg as single agent) was “minimal tumor growth inhibition”, the combination effect ([1]; Compound 1 with 2 Gy radiation) was “additive combination effect” and the “anti-tumor activity compared to the vehicle control” value ([1]; single agent, IV at 6.25 mg/kg for 3 weeks on Days 0, 3, 7, 10, 14, 17) was “no anti-tumor activity”. For the same compound, the Classification [1, 3] was “Additive (If the P-value is above 0.05, then the combination is considered to be additive)”, the Synergy score [1, 3] was −20 and the Classification [1, 4] was “Additive (If the P-value is above 0.05, then the combination is considered to be additive)”. For the same compound, the Synergy score [1, 4] was −24, the Classification [1, 5] was “Additive (If the P-value is above 0.05, then the combination is considered to be additive)” and the Synergy score [1, 5] was 24. For the same compound, the Classification [1, 6] was “Additive (If the P-value is above 0.05, then the combination is considered to be additive)”, the Synergy score [1, 6] was −13 and the “Tumor Volume Day 21” value ([2]; 6.25 mg/kg compound 1 IV BIWx3 + 2 Gy Radiation Beam D 0, 1, 3, 8) was 266.8 mm^3. The “Tumor Volume Day 21” value ([2]; 6.25 mg/kg compound 1 IV BIWx3 = D 0, 3, 8, 11, 15, 18, single agent) was 697.1 mm^3, the “Tumor Volume Day 21” value ([2]; 15 mg/kg compound 1 IV BIWx3 + 2 Gy Radiation Beam D 0, 1, 3, 8) was 178.2 mm^3 and the “Tumor Volume Day 21” value ([2]; 15 mg/kg compound 1 IV BIWx3 = D 0, 3, 8, 11, 15, 18, single agent) was 755.2 mm^3. The combination effect ([2]; Compound 1 at 6.25 mg/kg with 2 Gy of Radiation) was “additive combination effect”, the combination effect ([2]; Compound 1 at 15 mg/kg with 2 Gy of Radiation) was “synergistic combination effect” and the “anti-tumor activity compared to the vehicle control” value ([2]; single agent, IV at 6.25 and 15 mg/kg for 3 weeks on Days 0, 3, 8, 11, 15 and 18) was “no significant anti-tumor activity”. For the same compound, the Classification [2, 7] was “Additive (If the P-value is above 0.05, then the combination is considered to be additive)”, the Synergy score [2, 7] was 10 and the Classification [2, 8] was “Synergy (If the P-value is below 0.05, and the synergy score is less than zero, then the combination is considered to be synergistic)”. The Synergy score [2, 8] was −49.
